Earlier results, collected in US6447807B1, “Potassium (-)-hydroxycitric acid methods for pharmaceutical preparations for stable and controlled delivery” (priority 1999, dated 2002).

Conditions: single large oral dose, or two divided oral doses totaling one fourth of it; animals fed a high-sugar diet

SMILES: O=C(O)CC(O)(C(=O)O)C(O)C(=O)O (single isomer, unassigned; (-)) [HCA, (−)-Hydroxycitric acid]
- reduction in food consumption: ≥ 10%
